Data: PubChem BioAssay AID1259407 (Chemical Carcinogenesis Research Information System (CCRIS), 2018)
Active and inactive are the calls of the source. How the calls were made is not given here.

Test system: CCRIS mutagenicity, Ames/micronucleus/aberration tests
Assay: CCRIS mutagenicity studies
[1] = Test System: AMES SALMONELLA TYPHIMURIUM, Strain/Indicator: TA98, Metabolic Activation: NONE, Method: PREINCUBATION
[2] = Test System: AMES SALMONELLA TYPHIMURIUM, Strain/Indicator: TA100, Metabolic Activation: NONE, Method: PREINCUBATION
[3] = Test System: AMES SALMONELLA TYPHIMURIUM, Strain/Indicator: TA100, Metabolic Activation: NONE, Method: STANDARD PLATE
[4] = Test System: AMES SALMONELLA TYPHIMURIUM, Strain/Indicator: TA98, Metabolic Activation: NONE, Method: STANDARD PLATE
[5] = Test System: AMES SALMONELLA TYPHIMURIUM, Strain/Indicator: TA98, Metabolic Activation: RAT, LIVER, S-9, AROCLOR 1254, Method: STANDARD PLATE
[6] = Test System: AMES SALMONELLA TYPHIMURIUM, Strain/Indicator: TA100, Metabolic Activation: RAT, LIVER, S-9, AROCLOR 1254, Method: STANDARD PLATE
[7] = Test System: AMES SALMONELLA TYPHIMURIUM, Strain/Indicator: TA1535, Metabolic Activation: NONE, Method: STANDARD PLATE
[8] = Test System: AMES SALMONELLA TYPHIMURIUM, Strain/Indicator: TA1537, Metabolic Activation: NONE, Method: STANDARD PLATE

CCCCCCCCCCCCCC(=O)O
mutagenic call (Test System: AMES SALMONELLA TYPHIMURIUM, Strain/Indicator: TA97, Metabolic Activation: HAMSTER, LIVER, S-9, AROCLOR 1254 (10 OR 30%), Method: PREINCUBATION): inactive; negative
mutagenic call (Test System: AMES SALMONELLA TYPHIMURIUM, Strain/Indicator: TA97, Metabolic Activation: NONE, Method: PREINCUBATION): inactive; negative
mutagenic call (Test System: AMES SALMONELLA TYPHIMURIUM, Strain/Indicator: TA97, Metabolic Activation: RAT, LIVER, S-9, AROCLOR 1254 (10%), Method: PREINCUBATION): inactive; negative
mutagenic call (Test System: AMES SALMONELLA TYPHIMURIUM, Strain/Indicator: TA97, Metabolic Activation: RAT, LIVER, S-9, AROCLOR 1254 (30%), Method: PREINCUBATION): inactive; negative
mutagenic call (Test System: AMES SALMONELLA TYPHIMURIUM, Strain/Indicator: TA98, Metabolic Activation: HAMSTER, LIVER, S-9, AROCLOR 1254 (10 OR 30%), Method: PREINCUBATION): inactive; negative
mutagenic call [1]: inactive; negative
mutagenic call (Test System: AMES SALMONELLA TYPHIMURIUM, Strain/Indicator: TA98, Metabolic Activation: RAT LIVER S-9, PHENOBARBITAL AND BETA-NAPHTHOFLAVONE, Method: PREINCUBATION): inactive; negative
mutagenic call (Test System: AMES SALMONELLA TYPHIMURIUM, Strain/Indicator: TA98, Metabolic Activation: RAT, LIVER, S-9, AROCLOR 1254 (10 OR 30%), Method: PREINCUBATION): inactive; negative
mutagenic call (Test System: AMES SALMONELLA TYPHIMURIUM, Strain/Indicator: TA100, Metabolic Activation: HAMSTER, LIVER, S-9, AROCLOR 1254 (10%), Method: PREINCUBATION): inactive; negative
mutagenic call (Test System: AMES SALMONELLA TYPHIMURIUM, Strain/Indicator: TA100, Metabolic Activation: HAMSTER, LIVER, S-9, AROCLOR 1254 (30%), Method: PREINCUBATION): inactive; negative
mutagenic call [2]: inactive; negative
mutagenic call (Test System: AMES SALMONELLA TYPHIMURIUM, Strain/Indicator: TA100, Metabolic Activation: RAT LIVER S-9, PHENOBARBITAL AND BETA-NAPHTHOFLAVONE, Method: PREINCUBATION): inactive; negative
mutagenic call (Test System: AMES SALMONELLA TYPHIMURIUM, Strain/Indicator: TA100, Metabolic Activation: RAT, LIVER, S-9, AROCLOR 1254 (10%), Method: PREINCUBATION): inactive; negative
mutagenic call (Test System: AMES SALMONELLA TYPHIMURIUM, Strain/Indicator: TA100, Metabolic Activation: RAT, LIVER, S-9, AROCLOR 1254 (30%), Method: PREINCUBATION): inactive; negative
mutagenic call (Test System: AMES SALMONELLA TYPHIMURIUM, Strain/Indicator: TA1535, Metabolic Activation: HAMSTER, LIVER, S-9, AROCLOR 1254 (10 OR 30%), Method: PREINCUBATION): inactive; negative
mutagenic call (Test System: AMES SALMONELLA TYPHIMURIUM, Strain/Indicator: TA1535, Metabolic Activation: NONE, Method: PREINCUBATION): inactive; negative
mutagenic call (Test System: AMES SALMONELLA TYPHIMURIUM, Strain/Indicator: TA1535, Metabolic Activation: RAT, LIVER, S-9, AROCLOR 1254 (10 OR 30%), Method: PREINCUBATION): inactive; negative
mutagenic call (Test System: AMES SALMONELLA TYPHIMURIUM, Strain/Indicator: TA1537, Metabolic Activation: HAMSTER, LIVER, S-9, AROCLOR 1254 (10 OR 30%), Method: PREINCUBATION): inactive; negative
mutagenic call (Test System: AMES SALMONELLA TYPHIMURIUM, Strain/Indicator: TA1537, Metabolic Activation: NONE, Method: PREINCUBATION): inactive; negative
mutagenic call (Test System: AMES SALMONELLA TYPHIMURIUM, Strain/Indicator: TA1537, Metabolic Activation: RAT LIVER S-9, PHENOBARBITAL AND BETA-NAPHTHOFLAVONE, Method: PREINCUBATION): inactive; negative
mutagenic call (Test System: AMES SALMONELLA TYPHIMURIUM, Strain/Indicator: TA1537, Metabolic Activation: RAT, LIVER, S-9, AROCLOR 1254 (10 OR 30%), Method: PREINCUBATION): inactive; negative
mutagenic call (Test System: E.COLI, Strain/Indicator: WP2UVRA/PKM101, Metabolic Activation: NONE, Method: PREINCUBATION): inactive; negative
mutagenic call (Test System: E.COLI, Strain/Indicator: WP2UVRA/PKM101, Metabolic Activation: RAT LIVER S-9, PHENOBARBITAL AND BETA-NAPHTHOFLAVONE, Method: PREINCUBATION): inactive; negative

O=C(CBr)c1ccc(Br)cc1
mutagenic call [1]: inactive; negative
mutagenic call (Test System: AMES SALMONELLA TYPHIMURIUM, Strain/Indicator: TA98, Metabolic Activation: RAT, LIVER, S-9, PCB, Method: PREINCUBATION): inactive; negative
mutagenic call [2]: inactive; negative
mutagenic call (Test System: AMES SALMONELLA TYPHIMURIUM, Strain/Indicator: TA100, Metabolic Activation: RAT, LIVER, S-9, PCB, Method: PREINCUBATION): inactive; negative
mutagenic call (Test System: E. COLI, Strain/Indicator: WP2 UVRA, Metabolic Activation: NONE, Method: PREINCUBATION): inactive; negative

Cc1ccc(S(=O)(=O)OCc2ccc([N+](=O)[O-])cc2)cc1
mutagenic call [3]: active; positive

CNC(=O)N(C)c1nc2ccccc2s1
mutagenic call [4]: inactive; negative
mutagenic call [5]: inactive; negative
mutagenic call [3]: inactive; negative
mutagenic call [6]: inactive; negative

O=Cc1cccc(Cl)c1
mutagenic call [1]: inactive; negative
mutagenic call (Test System: AMES SALMONELLA TYPHIMURIUM, Strain/Indicator: TA98, Metabolic Activation: RAT LIVER S-9, PCB, Method: PREINCUBATION): inactive; negative
mutagenic call [2]: inactive; negative
mutagenic call (Test System: AMES SALMONELLA TYPHIMURIUM, Strain/Indicator: TA100, Metabolic Activation: RAT LIVER S-9, PCB, Method: PREINCUBATION): inactive; negative
mutagenic call (Test System: AMES SALMONELLA TYPHIMURIUM, Strain/Indicator: TA104, Metabolic Activation: NONE, Method: PREINCUBATION): inactive; negative
mutagenic call (Test System: AMES SALMONELLA TYPHIMURIUM, Strain/Indicator: TA104, Metabolic Activation: RAT LIVER S-9, PCB, Method: PREINCUBATION): inactive; negative
mutagenic call (Test System: E.COLI, Strain/Indicator: WP2 UVRA, Metabolic Activation: NONE, Method: PREINCUBATION): inactive; negative
mutagenic call (Test System: E.COLI, Strain/Indicator: WP2 UVRA, Metabolic Activation: RAT LIVER S-9, PCB, Method: PREINCUBATION): inactive; negative

Cc1c(Cl)cnc2ccccc12
mutagenic call (Test System: AMES SALMONELLA TYPHIMURIUM, Strain/Indicator: TA100, Metabolic Activation: RAT, LIVER, S-9, Method: PREINCUBATION): inactive; negative

c1ccc2c(c1)ccc1c2ccc2c3ccccc3ccc21
mutagenic call (Test System: AMES SALMONELLA TYPHIMURIUM, Strain/Indicator: TA100, Metabolic Activation: MOUSE, LIVER, S-10, AROCLOR 1254): active; positive

CN(C(=O)CCCCl)c1snc2ccccc12
mutagenic call [4]: inactive; negative
mutagenic call (Test System: AMES SALMONELLA TYPHIMURIUM, Strain/Indicator: TA98, Metabolic Activation: S-9, Method: STANDARD PLATE): inactive; negative
mutagenic call [3]: inactive; negative
mutagenic call (Test System: AMES SALMONELLA TYPHIMURIUM, Strain/Indicator: TA100, Metabolic Activation: S-9, Method: STANDARD PLATE): inactive; negative
mutagenic call [7]: inactive; negative
mutagenic call (Test System: AMES SALMONELLA TYPHIMURIUM, Strain/Indicator: TA1535, Metabolic Activation: S-9, Method: STANDARD PLATE): inactive; negative
mutagenic call [8]: inactive; negative
mutagenic call (Test System: AMES SALMONELLA TYPHIMURIUM, Strain/Indicator: TA1537, Metabolic Activation: S-9, Method: STANDARD PLATE): inactive; negative

NC(=O)N(CCO)N=O
mutagenic call (Test System: E. COLI B, Strain/Indicator: H/R30R, Metabolic Activation: NONE): active; positive
mutagenic call (Test System: E. COLI B, Strain/Indicator: HS30R, Metabolic Activation: NONE): active; positive

CCOC(=O)C(C)=O
mutagenic call [4]: inactive; negative
mutagenic call [5]: inactive; negative
mutagenic call [3]: inactive; negative
mutagenic call [6]: inactive; negative
mutagenic call [7]: inactive; negative
mutagenic call (Test System: AMES SALMONELLA TYPHIMURIUM, Strain/Indicator: TA1535, Metabolic Activation: RAT, LIVER, S-9, AROCLOR 1254, Method: STANDARD PLATE): inactive; negative
mutagenic call [8]: inactive; negative
mutagenic call (Test System: AMES SALMONELLA TYPHIMURIUM, Strain/Indicator: TA1537, Metabolic Activation: RAT, LIVER, S-9, AROCLOR 1254, Method: STANDARD PLATE): inactive; negative

O=[N+]([O-])c1ccc2c(Cl)nsc2c1
mutagenic call [4]: active; positive
